Data reported in BigSolDB 2.1.

O=S(=O)(c1ccccc1)N(F)S(=O)(=O)c1ccccc1
Conditions	solubility (mole fraction)
in 2-butanone, 273.35 K	0.0332
in 2-butanone, 278.35 K	0.0396
in 2-butanone, 283.35 K	0.047
in 2-butanone, 288.35 K	0.0546
in 2-butanone, 292.85 K	0.0637
in 2-butanone, 297.95 K	0.0734
in 2-butanone, 302.65 K	0.0852
in 2-butanone, 307.35 K	0.0978
in 2-butanone, 312.55 K	0.111
in 2-butanone, 316.95 K	0.128
in 2-butanone, 322.85 K	0.146
in 2-pentanone, 273.35 K	0.0316
in 2-pentanone, 278.35 K	0.038
in 2-pentanone, 283.35 K	0.0455
in 2-pentanone, 288.35 K	0.0534
in 2-pentanone, 292.85 K	0.0628
in 2-pentanone, 297.95 K	0.073
in 2-pentanone, 302.65 K	0.0853
in 2-pentanone, 307.35 K	0.0988
in 2-pentanone, 312.55 K	0.113
in 2-pentanone, 316.95 K	0.131
in 2-pentanone, 322.85 K	0.151
in acetone, 273.35 K	0.0309
in acetone, 278.35 K	0.0376
in acetone, 283.35 K	0.0455
in acetone, 288.35 K	0.0539
in acetone, 292.85 K	0.0639
in acetone, 297.95 K	0.0749
in acetone, 302.65 K	0.0885
in acetone, 307.35 K	0.104
in acetone, 312.55 K	0.119
in acetone, 316.95 K	0.14
in acetone, 322.85 K	0.162
in acetonitrile, 273.35 K	0.00951
in acetonitrile, 278.35 K	0.0126
in acetonitrile, 283.35 K	0.0165
in acetonitrile, 288.35 K	0.021
in acetonitrile, 292.85 K	0.0267
in acetonitrile, 297.95 K	0.0334
in acetonitrile, 302.65 K	0.0422
in acetonitrile, 307.35 K	0.0528
in acetonitrile, 312.55 K	0.0645
in acetonitrile, 316.95 K	0.0804
in acetonitrile, 322.85 K	0.0996
in ethanol, 273.35 K	0.000599
in ethanol, 278.35 K	0.000791
in ethanol, 283.35 K	0.00103
in ethanol, 288.35 K	0.00134
in ethanol, 292.85 K	0.00168
in ethanol, 297.95 K	0.00214
in ethanol, 302.65 K	0.00268
in ethanol, 307.35 K	0.00331
in ethanol, 312.55 K	0.00417
in ethanol, 316.95 K	0.00503
in ethanol, 322.85 K	0.00641
in ethyl acetate, 273.35 K	0.0243
in ethyl acetate, 278.35 K	0.0295
in ethyl acetate, 283.35 K	0.0353
in ethyl acetate, 288.35 K	0.0415
in ethyl acetate, 292.85 K	0.0489
in ethyl acetate, 297.95 K	0.0568
in ethyl acetate, 302.65 K	0.0668
in ethyl acetate, 307.35 K	0.0775
in ethyl acetate, 312.55 K	0.0885
in ethyl acetate, 316.95 K	0.103
in ethyl acetate, 322.85 K	0.119
in ethyl formate, 273.35 K	0.0206
in ethyl formate, 278.35 K	0.0254
in ethyl formate, 283.35 K	0.0309
in ethyl formate, 288.35 K	0.0369
in ethyl formate, 292.85 K	0.0441
in ethyl formate, 297.95 K	0.052
in ethyl formate, 302.65 K	0.0619
in ethyl formate, 307.35 K	0.0728
in ethyl formate, 312.55 K	0.0843
in ethyl formate, 316.95 K	0.0992
in ethyl formate, 322.85 K	0.116
in isobutanol, 273.35 K	0.000182
in isobutanol, 278.35 K	0.000265
in isobutanol, 283.35 K	0.000382
in isobutanol, 288.35 K	0.000545
in isobutanol, 292.85 K	0.000744
in isobutanol, 297.95 K	0.00104
in isobutanol, 302.65 K	0.00141
in isobutanol, 307.35 K	0.00188
in isobutanol, 312.55 K	0.00258
in isobutanol, 316.95 K	0.00332
in isobutanol, 322.85 K	0.00467
in isopentanol, 273.35 K	0.000312
in isopentanol, 278.35 K	0.000432
in isopentanol, 283.35 K	0.000594
in isopentanol, 288.35 K	0.000812
in isopentanol, 292.85 K	0.00106
in isopentanol, 297.95 K	0.00142
in isopentanol, 302.65 K	0.00184
in isopentanol, 307.35 K	0.00238
in isopentanol, 312.55 K	0.00312
in isopentanol, 316.95 K	0.00389
in isopentanol, 322.85 K	0.00519
in isopropanol, 273.35 K	0.000584
in isopropanol, 278.35 K	0.000798
in isopropanol, 283.35 K	0.000929
in isopropanol, 288.35 K	0.00121
in isopropanol, 292.85 K	0.0015
in isopropanol, 297.95 K	0.00186
in isopropanol, 302.65 K	0.00226
in isopropanol, 307.35 K	0.00275
in isopropanol, 312.55 K	0.00346
in isopropanol, 316.95 K	0.0041
in isopropanol, 322.85 K	0.00495
in methanol, 273.35 K	0.000611
in methanol, 278.35 K	0.000792
in methanol, 283.35 K	0.00102
in methanol, 288.35 K	0.0013
in methanol, 292.85 K	0.0016
in methanol, 297.95 K	0.00201
in methanol, 302.65 K	0.00248
in methanol, 307.35 K	0.00302
in methanol, 312.55 K	0.00374
in methanol, 316.95 K	0.00445
in methanol, 322.85 K	0.0056
in methyl acetate, 273.35 K	0.0285
in methyl acetate, 278.35 K	0.0346
in methyl acetate, 283.35 K	0.0417
in methyl acetate, 288.35 K	0.0492
in methyl acetate, 292.85 K	0.0583
in methyl acetate, 297.95 K	0.0681
in methyl acetate, 302.65 K	0.0803
in methyl acetate, 307.35 K	0.0934
in methyl acetate, 312.55 K	0.107
in methyl acetate, 316.95 K	0.126
in methyl acetate, 322.85 K	0.145
in n-butanol, 273.35 K	0.00053
in n-butanol, 278.35 K	0.000696
in n-butanol, 283.35 K	0.000909
in n-butanol, 288.35 K	0.00117
in n-butanol, 292.85 K	0.00147
in n-butanol, 297.95 K	0.00187
in n-butanol, 302.65 K	0.00233
in n-butanol, 307.35 K	0.00287
in n-butanol, 312.55 K	0.0036
in n-butanol, 316.95 K	0.00433
in n-butanol, 322.85 K	0.00551
in n-pentanol, 273.35 K	0.000465
in n-pentanol, 278.35 K	0.000632
in n-pentanol, 283.35 K	0.000843
in n-pentanol, 288.35 K	0.00112
in n-pentanol, 292.85 K	0.00142
in n-pentanol, 297.95 K	0.00186
in n-pentanol, 302.65 K	0.00236
in n-pentanol, 307.35 K	0.00298
in n-pentanol, 312.55 K	0.00382
in n-pentanol, 316.95 K	0.0047
in n-pentanol, 322.85 K	0.00613
in n-propanol, 273.35 K	0.000452
in n-propanol, 278.35 K	0.000616
in n-propanol, 283.35 K	0.000832
in n-propanol, 288.35 K	0.00111
in n-propanol, 292.85 K	0.00142
in n-propanol, 297.95 K	0.00187
in n-propanol, 302.65 K	0.00239
in n-propanol, 307.35 K	0.00304
in n-propanol, 312.55 K	0.00392
in n-propanol, 316.95 K	0.00485
in n-propanol, 322.85 K	0.00633
in toluene, 273.35 K	0.0112
in toluene, 278.35 K	0.0145
in toluene, 283.35 K	0.0185
in toluene, 288.35 K	0.0228
in toluene, 292.85 K	0.0284
in toluene, 297.95 K	0.0346
in toluene, 302.65 K	0.0429
in toluene, 307.35 K	0.052
in toluene, 312.55 K	0.0623
in toluene, 316.95 K	0.076
in toluene, 322.85 K	0.092
